Each molecule was assayed against human Gal-3 (hGal-3) (Homo sapiens (Human), UniProt P17931) (assay: competitive binding assay: binding of biotinylated hGal-3 to microplate-adsorbed asialofetuin (ASF), spectrophotometric). Settings: Activity on hGal-3; mean values of several measurements.
Method: Evaluation of Compound Inhibitory Activity (IC50)
The inhibitory activity of compounds is determined in competitive binding assays. This spectrophotometric assay measures the binding of biotinylated human Gal-3 (hGal-3) or human Gal-1 (hGal-1), respectively, to a microplate-adsorbed glycoprotein, asialofetuin (ASF) (Proc Natl Acad Sci USA. 2013 Mar. 26; 110(13):5052-7.). Alternatively, and preferably, a human Gal-1 version in which all six cysteines are substituted by serines may be used.
Briefly, compounds are serially diluted in DMSO (working dilutions). ASF-coated 384 well plates are supplemented with 22.8 μL/well of biotinylated hGal-3 or hGal-1 in assay buffer (i.e. 300-1000 ng/mL biotinylated hGal-3 or hGal-1) to which 1.2 μL of compound working dilutions are added and mixed.
Plates are incubated for 3 hours at 4° C., then washed with cold assay buffer (3×50 uL), incubated for 1 hour with 25 μL/well of a streptavidin-peroxidase solution (diluted in assay buffer to 80 ng/mL) at 4° C., followed by further washing steps with assay buffer (3×50 uL). Finally, 25 μL/well of ABTS substrate is added.
The calculated IC50 values may fluctuate depending on the daily assay performance. Fluctuations of this kind are known to those skilled in the art. IC50 values from several measurements are given as mean values.

human Gal-3 (hGal-3), sequence (P17931 whole entry): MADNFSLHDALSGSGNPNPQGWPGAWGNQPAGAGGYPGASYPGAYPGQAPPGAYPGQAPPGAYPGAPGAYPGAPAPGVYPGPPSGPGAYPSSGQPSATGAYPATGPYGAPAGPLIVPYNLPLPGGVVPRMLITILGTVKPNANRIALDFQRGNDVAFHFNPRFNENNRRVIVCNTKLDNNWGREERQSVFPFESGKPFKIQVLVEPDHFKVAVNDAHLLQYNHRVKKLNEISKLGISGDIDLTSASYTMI

| Structure (SMILES) | IC50 |
| --- | --- |
| CO[C@@H]1[C@@H](n2cc(-c3cc(F)c(F)c(F)c3)nn2)[C@@H](O)[C@@H](CO)O[C@H]1C(=O)N(c1cccc(I)c1)[C@@H]1CCC[C@H]1O [Example 1.1.6R, (2R,3R,4S,5R,6R)-5-hydroxy-N-((1R,2R)-2-hydroxycyclopentyl)-6-(hydroxymethyl)-N-(3-iodophenyl)-3-methoxy-4-(4-(3,4,5-trifluorophenyl)-1H-1,2,3-triazol-1-yl)tetrahydro-2H-pyran-2-carboxamide] | 261 nM |
| CC(=O)O[C@@H]1[C@@H](n2cc(-c3cc(F)c(C)c(F)c3)nn2)[C@@H](O)[C@@H](CO)O[C@H]1C(=O)N(c1cc(Cl)cc(C#N)c1)[C@H]1CCC[C@@H]1O [Example 1A.4.4, (2R,3R,4S,5R,6R)-2-((3-chloro-5-cyanophenyl)((1S,2S)-2-hydroxycyclopentyl)carbamoyl)-4-(4-(3,5-difluoro-4-methylphenyl)-1H-1,2,3-triazol-1-yl)-5-hydroxy-6-(hydroxymethyl)tetrahydro-2H-pyran-3-yl acetate] | 26.8 nM |
| CC(=O)O[C@@H]1[C@@H](n2cc(-c3cc(F)c(C)c(F)c3)nn2)[C@@H](O)[C@@H](CO)O[C@H]1C(=O)N(c1cc(Cl)cc(Cl)c1)[C@H]1CCC[C@@H]1O [Example 1A.4.2, (2R,3R,4S,5R,6R)-2-((3,5-dichlorophenyl)((1S,2S)-2-hydroxycyclopentyl)carbamoyl)-4-(4-(3,5-difluoro-4-methylphenyl)-1H-1,2,3-triazol-1-yl)-5-hydroxy-6-(hydroxymethyl)tetrahydro-2H-pyran-3-yl acetate] | 12.9 nM |
| CO[C@@H]1[C@@H](n2cc(-c3ccc(C)c(F)c3F)nn2)[C@@H](O)[C@@H](CO)O[C@H]1C(=O)N(c1cc(Cl)cc(C#N)c1)[C@@H]1CCC[C@H]1O [Example 1.11.4R, (2R,3R,4S,5R,6R)-N-(3-chloro-5-cyanophenyl)-4-(4-(2,3-difluoro-4-methylphenyl)-1H-1,2,3-triazol-1-yl)-5-hydroxy-N-((1R,2R)-2-hydroxycyclopentyl)-6-(hydroxymethyl)-3-methoxytetrahydro-2H-pyran-2-carboxamide] | 53.9 nM |
| CO[C@@H]1[C@@H](n2cc(-c3ccc(Br)c(F)c3F)nn2)[C@@H](O)[C@@H](CO)O[C@H]1C(=O)N(c1cc(F)cc(C#N)c1)[C@@H]1CCC[C@H]1O [Example 1.12.7R, (2R,3R,4S,5R,6R)-4-(4-(4-bromo-2,3-difluorophenyl)-1H-1,2,3-triazol-1-yl)-N-(3-cyano-5-fluorophenyl)-5-hydroxy-N-((1R,2R)-2-hydroxycyclopentyl)-6-(hydroxymethyl)-3-methoxytetrahydro-2H-pyran-2-carboxamide] | 94.6 nM |
| CO[C@@H]1[C@@H](n2cc(-c3cc(F)c(F)c(F)c3)nn2)[C@@H](O)[C@@H](CO)O[C@H]1C(=O)N(c1cccc(I)c1)[C@@H]1CC[C@H]1O [Example 2.1.6R, (2R,3R,4S,5R,6R)-5-hydroxy-N-((1R,2R)-2-hydroxycyclobutyl)-6-(hydroxymethyl)-N-(3-iodophenyl)-3-methoxy-4-(4-(3,4,5-trifluorophenyl)-1H-1,2,3-triazol-1-yl)tetrahydro-2H-pyran-2-carboxamide] | 232 nM |
| CO[C@@H]1[C@@H](n2cc(-c3ccc(Cl)c(F)c3F)nn2)[C@@H](O)[C@@H](CO)O[C@H]1C(=O)N(c1cc(Br)cc(C#N)c1)[C@@H]1CCC[C@H]1O [Example 1.14.5R, (2R,3R,4S,5R,6R)-N-(3-bromo-5-cyanophenyl)-4-(4-(4-chloro-2,3-difluorophenyl)-1H-1,2,3-triazol-1-yl)-5-hydroxy-N-((1R,2R)-2-hydroxycyclopentyl)-6-(hydroxymethyl)-3-methoxytetrahydro-2H-pyran-2-carboxamide] | 25.5 nM |
| CO[C@@H]1[C@@H](n2cc(-c3cccc(F)c3)nn2)[C@@H](O)[C@@H](CO)O[C@H]1C(=O)N(c1cc(Br)cc(C#N)c1)[C@@H]1CCC[C@H]1O [Example 1.15.5R, (2R,3R,4S,5R,6R)-N-(3-bromo-5-cyanophenyl)-4-(4-(3-fluorophenyl)-1H-1,2,3-triazol-1-yl)-5-hydroxy-N-((1R,2R)-2-hydroxycyclopentyl)-6-(hydroxymethyl)-3-methoxytetrahydro-2H-pyran-2-carboxamide] | 612 nM |

Second part, the molecule after the results:

| IC50 | Structure (SMILES) |
| --- | --- |
| 56 nM | CO[C@@H]1[C@@H](n2cc(-c3cc(F)c(Cl)c(Cl)c3)nn2)[C@@H](O)[C@@H](CO)O[C@H]1C(=O)N(c1cc(Br)cc(C#N)c1)[C@H]1CC[C@@H]1O [Example 2.17.5, (2R,3R,4S,5R,6R)-N-(3-bromo-5-cyanophenyl)-4-(4-(3,4-dichloro-5-fluorophenyl)-1H-1,2,3-triazol-1-yl)-5-hydroxy-N-((1S,2S)-2-hydroxycyclobutyl)-6-(hydroxymethyl)-3-methoxytetrahydro-2H-pyran-2-carboxamide] |
| 17.4 nM | CO[C@@H]1[C@@H](n2cc(-c3ccc(Cl)c(F)c3F)nn2)[C@@H](O)[C@@H](CO)O[C@H]1C(=O)N(c1cc(Br)cc(C#N)c1)[C@H]1CCC[C@@H]1O [Example 1.14.5, (2R,3R,4S,5R,6R)-N-(3-bromo-5-cyanophenyl)-4-(4-(4-chloro-2,3-difluorophenyl)-1H-1,2,3-triazol-1-yl)-5-hydroxy-N-((1S,2S)-2-hydroxycyclopentyl)-6-(hydroxymethyl)-3-methoxytetrahydro-2H-pyran-2-carboxamide] |
| 80.3 nM | CO[C@@H]1[C@@H](n2cc(-c3cc(F)c(F)c(Cl)c3)nn2)[C@@H](O)[C@@H](CO)O[C@H]1C(=O)N(c1cc(Br)cc(C#N)c1)[C@H]1CC[C@@H]1O [Example 2.7.5, (2R,3R,4S,5R,6R)-N-(3-bromo-5-cyanophenyl)-4-(4-(3-chloro-4,5-difluorophenyl)-1H-1,2,3-triazol-1-yl)-5-hydroxy-N-((1S,2S)-2-hydroxycyclobutyl)-6-(hydroxymethyl)-3-methoxytetrahydro-2H-pyran-2-carboxamide] |
| 28.6 nM | CO[C@@H]1[C@@H](n2cc(-c3cc(F)c(Br)c(F)c3)nn2)[C@@H](O)[C@@H](CO)O[C@H]1C(=O)N(c1cc(Cl)cc(C#N)c1)[C@H]1CCC[C@@H]1O [Example 1.6.4, (2R,3R,4S,5R,6R)-4-(4-(4-bromo-3,5-difluorophenyl)-1H-1,2,3-triazol-1-yl)-N-(3-chloro-5-cyanophenyl)-5-hydroxy-N-((1S,2S)-2-hydroxycyclopentyl)-6-(hydroxymethyl)-3-methoxytetrahydro-2H-pyran-2-carboxamide] |
| 28.9 nM | N#Cc1cc(Cl)cc(N(C(=O)[C@@H]2O[C@H](CO)[C@H](O)[C@H](n3cc(-c4cc(F)c(F)c(F)c4)nn3)[C@H]2O)[C@H]2CCC[C@@H]2O)c1 [Example 1H.1.4, (2R,3R,4S,5R,6R)-N-(3-chloro-5-cyanophenyl)-3,5-dihydroxy-N-((1S,2S)-2-hydroxycyclopentyl)-6-(hydroxymethyl)-4-(4-(3,4,5-trifluorophenyl)-1H-1,2,3-triazol-1-yl)tetrahydro-2H-pyran-2-carboxamide] |
| 311 nM | COc1cc(-c2cn([C@H]3[C@@H](O)[C@@H](CO)O[C@@H](C(=O)N(c4cc(C)cc(Br)c4)[C@@H]4CC[C@H]4O)[C@@H]3OC)nn2)cc(F)c1F [Example 2.3.12R, (2R,3R,4S,5R,6R)-N-(3-bromo-5-methylphenyl)-4-(4-(3,4-difluoro-5-methoxyphenyl)-1H-1,2,3-triazol-1-yl)-5-hydroxy-N-((1R,2R)-2-hydroxycyclobutyl)-6-(hydroxymethyl)-3-methoxytetrahydro-2H-pyran-2-carboxamide] |
| 78.6 nM | CO[C@@H]1[C@@H](n2cc(-c3cc(F)c(F)c(Cl)c3)nn2)[C@@H](O)[C@@H](CO)O[C@H]1C(=O)N(c1cc(Cl)cc(C#N)c1)[C@H]1CC[C@@H]1O [Example 2.7.4, (2R,3R,4S,5R,6R)-4-(4-(3-chloro-4,5-difluorophenyl)-1H-1,2,3-triazol-1-yl)-N-(3-chloro-5-cyanophenyl)-5-hydroxy-N-((1S,2S)-2-hydroxycyclobutyl)-6-(hydroxymethyl)-3-methoxytetrahydro-2H-pyran-2-carboxamide] |
| 258 nM | COc1cc(-c2cn([C@H]3[C@@H](O)[C@@H](CO)O[C@@H](C(=O)N(c4cc(Br)cc(Br)c4)[C@@H]4CC[C@H]4O)[C@@H]3OC)nn2)cc(F)c1F [Example 2.3.11R, (2R,3R,4S,5R,6R)-N-(3,5-dibromophenyl)-4-(4-(3,4-difluoro-5-methoxyphenyl)-1H-1,2,3-triazol-1-yl)-5-hydroxy-N-((1R,2R)-2-hydroxycyclobutyl)-6-(hydroxymethyl)-3-methoxytetrahydro-2H-pyran-2-carboxamide] |
| 1200 nM | COc1cc(C#N)cc(N(C(=O)[C@@H]2O[C@H](CO)[C@H](O)[C@H](n3cc(-c4cc(F)cc(Br)c4)nn3)[C@H]2OC)[C@@H]2CCC[C@H]2O)c1 [Example 1.10.9R, (2R,3R,4S,5R,6R)-4-(4-(3-bromo-5-fluorophenyl)-1H-1,2,3-triazol-1-yl)-N-(3-cyano-5-methoxyphenyl)-5-hydroxy-N-((1R,2R)-2-hydroxycyclopentyl)-6-(hydroxymethyl)-3-methoxytetrahydro-2H-pyran-2-carboxamide] |

From patent US20230348442A1, “GALECTIN-3 INHIBITING 2-HYDROXYCYCLOALKANE-1-CARBAMOYL DERIVATIVES” (Idorsia Pharmaceuticals Ltd, priority 2020, published 2023)
